Reference: patent US12485107B2, “Methods for the prevention or treatment of cytokine storm” (Beth Israel Deaconess Medical Center, Inc., priority 2019, dated 2025)
“Also recorded” adds a separate entry of the source.

What was measured:
[1] = kidney injury model; Hye Khan et al. 2016; cited from earlier work
[2] = tested on: RAW264.7 murine macrophages; experiment: Inflammatory cytokine array of RAW264.7 macrophages stimulated with ethanol-generated Hepa 1-6 debris; type: cell-based; details: 5 μM (combination 5 μM each), 2 hours pre-treatment
Method: Inflammatory cytokine array of RAW264.7 murine macrophage conditioned media co-cultured with ethanol-generated murine liver (Hepa 1-6) tumor cell debris and pre-treated for 2 hours with vehicle, PTUPB (5 μM), Ome-21i (5 μM), or Ome-21i+Celecoxib (5 μM each).
An inflammatory cytokine array of conditioned media from RAW264.7 macrophages treated with vehicle, PTUPB (5 μM), Ome-21i (5 μM), or Ome-21i (5 μM) and Celecoxib (5 μM) for 2 hours stimulated with ethanol-generated Hepa 1-6 debris is shown in FIG. 17. “Cytokine storm” released by debris-stimulated macrophages is prevented by the dual COX-2/sEH inhibitor PTUPB or sEH inhibitor Ome-21i and COX-2 inhibitor celecoxib.

[3] = tested on: RAW264.7 murine macrophages; experiment: LC-MS/MS oxylipin profiling of conditioned medium of debris-stimulated RAW264.7 macrophages; type: cell-based; details: 5 μM, 2 hours; paclitaxel-generated ID8 debris
Method: (§1) Macrophages were treated with vehicle or PTUPB (1-10 μM) in Dulbecco's phosphate-buffered saline containing calcium and magnesium (PBS^+/+) (Lonza, Basel, Switzerland) and incubated for 2 hours at 37° C. Carboplatin- or paclitaxel-generated ID8 or OVCAR5 debris was added to murine or human macrophages, respectively, at a 1:4 (macrophage:dead cell body) ratio and incubated for 1 hour at 37° C. Next, plates were aspirated, macrophages were re-fed with serum-free medium, and incubated overnight at 37° C. The conditioned medium was collected the next day, centrifuged at 1100 rpm for 5 minutes to remove particulates, and stored at −20° C. until further analysis via cytokine array, ELISA, or LC-MS/MS. Collection of RAW264.7 murine macrophage conditioned medium was repeated using debris from three distinct collections for a total of three separate experiments. Collection of human monocyte-derived macrophage conditioned medium was repeated using peripheral blood monocytes from three different human donors and debris from three distinct collections for a total of three separate experiments. Collection of primary murine peritoneal macrophages was repeated using macrophages pooled from 5-10 C57BL/6 female mice and debris from two distinct collections for a total of two separate experiments.
Oxylipins in conditioned medium from 3 biological repeats were analyzed by LC-MS/MS as described previously (Yang et al., Anal. Chem. 81(19):8085-8093 (2009)). In brief, 1 mL of medium was loaded onto the conditioned Oasis HLB solid phase extraction cartridge (Waters, Milford, MA), washed with 5% methanol solution, and eluted with 0.5 mL of methanol and 1.5 mL of ethyl acetate consequently. The elution was concentrated and reconstituted in 50 μL of methanol solution before injection into the UPLC/MS/MS system (Agilent 1200 SL and Sciex 4000 Qtrap system). The optimized parameters for LC-MS/MS were described in detail previously (Yang et al., supra).

[4] = tested on: RAW264.7 murine macrophages; experiment: Cytokine array/ELISA of conditioned medium of RAW264.7 macrophages stimulated with chemotherapy-generated ID8 debris; type: cell-based
Method: as §1
(§2) In vivo cytokines (serum or ascites) or cytokines in conditioned medium of macrophages treated with PTUPB and exposed to paclitaxel- or carboplatin-generated debris, were assessed according to the protocols provided by Proteome Profiler Mouse Cytokine Array Kit Panel A, Proteome Profiler Mouse Angiogenesis Array Kit, or Proteome Profiler Human Cytokine Array Kit Panel A (R&D Systems, Inc., Minneapolis, MN). Array control allows for comparison between membranes. […]
(§3) For quantitation of pro-inflammatory cytokines, serum or conditioned medium from macrophages treated with PTUPB and stimulated with paclitaxel-generated ID8 debris or from paclitaxel-generated ID8 debris alone without macrophages was used according to the protocols provided in each ELISA kit (R&D Systems, Minneapolis, MN).

[5] = tested on: primary murine peritoneal macrophages; experiment: Cytokine array/ELISA of conditioned medium of primary murine peritoneal macrophages stimulated with paclitaxel-generated ID8 debris; type: cell-based; details: PTUPB 5 or 10 μM, 2 hours
Method: Macrophages were treated with vehicle or PTUPB (1-10 μM) in Dulbecco's phosphate-buffered saline containing calcium and magnesium (PBS^+/+) (Lonza, Basel, Switzerland) and incubated for 2 hours at 37° C. Carboplatin- or paclitaxel-generated ID8 or OVCAR5 debris was added to murine or human macrophages, respectively, at a 1:4 (macrophage:dead cell body) ratio and incubated for 1 hour at 37° C. Next, plates were aspirated, macrophages were re-fed with serum-free medium, and incubated overnight at 37° C. […]
as §2, with “MN).” for “MN). Array control allows for comparison between membranes.”
as §3, with “MN). […]” for “MN).”

[6] = tested on: debris-stimulated intraperitoneal ovarian tumors (ID8); experiment: Debris-stimulated intraperitoneal ID8 ovarian tumor model, survival; type: in vivo, mice
Method: All animal studies were reviewed and approved by the Animal Care and Use Committee of Beth Israel Deaconess Medical Center, Boston, MA Mice were housed at a maximum of 5 animals per cage in a pathogen-free facility with unlimited access to sterile water and chow. Daily welfare evaluations and animal sacrifices were carried out according to the Committee guidelines. For murine injections, chemotherapy-generated murine (ID8) or human (OVCAR5) ovarian tumor cell debris was combined with ID8 or OVCAR5 living cells at equal volumes in PBS. Six-week-old female C57BL/6 (The Jackson Laboratory, Bar Harbor, ME) or SCID mice (Charles River, Cambridge, MA) were injected subcutaneously or intraperitoneally with 100 μL/mouse of ID8 or OVCAR5 cells, respectively. For orthotopic injections, 6-week-old C57BL/6 female mice were injected with 20 μL/mouse of matrigel (Becton Dickinson and Company, Franklin Lakes, NJ) mixed with paclitaxel-generated ID8 debris and/or ID8 living cells at a 1:1 (matrigel:cells) ratio directly into the right ovarian bursa. Systemic treatment with PTUPB (30 mg/kg/day) or control was administered via mini-osmotic pumps (Alzet Inc., Cupertino, CA) implanted into the peritoneum of the mice 4 weeks post-injection. Treatment ended 28 days after implantation of the pumps. Systemic chemotherapy with carboplatin (10 mg/kg q 3 days) or control that were initiated on the day of tumor cell injection.
Statistical analyses for in vitro studies were performed using Student's two-tailed unpaired t-test. Data are represented as mean±S.E.M. with p-values less than 0.05 considered statistically significant. For in vivo studies, the Kaplan-Meier product-limit method and log-rank testing were used to evaluate survival differences over time after the day of tumor cell injection between mice co-injected with tumor cell debris and living cells vs. living cells alone. Data are represented as percent survival with p-values less than 0.01 considered statistically significant.

[7] = tested on: RAW264.7 murine macrophages; type: cell-based; details: RFU, percent increase above vehicle-treated macrophages

NS(=O)(=O)c1ccc(-n2nc(CCCNC(=O)Nc3ccc(C(F)(F)F)cc3)cc2-c2ccccc2)cc1 [PTUPB, 4-(5-phenyl-3-{3-[3-(4-trifluoromethyl-phenyl)-ureido]propyl}-pyrazol-1-yl) benzenesulfonamide]
release of pro-inflammatory cytokines, such as CCL2/MCP-1 [1]: suppressed
cytokine storm released by macrophages stimulated with ethanol-generated Hepa 1-6 debris [2]: able to inhibit; also recorded: prevented
debris-stimulated surge of COX-derived lipid mediators PGF2α, PGD2, PGJ2 released by macrophages [3]: suppressed this debris-stimulated surge of bioactive lipids; also recorded: inhibits the surge
reduction of PGE2, THF diol, 15-HETE, 11-HETE, 5-HETE by debris-stimulated macrophages [3]: neutralized the reduction of these lipids; also recorded: neutralizing the reduction
release of 15-oxoETE by macrophages in the presence of debris [3]: suppressed the release of 15-oxoETE
debris-stimulated macrophage release of IL-1ra ([4]; FIGS. 4A, 4C, 5D, ID8 debris): suppressed debris-stimulated macrophage release of IL-1ra
pro-inflammatory cytokine surge (TNFα, MIP-2/CXCL2, MIP-1β/CCL4, CCL2/MCP-1, sICAM-1/CD54, G-CSF) by debris-stimulated macrophages ([4]; PTUPB 5 μM, 2 hours, paclitaxel- or carboplatin-generated ID8 debris): prevented the cytokine surge
angiogenic cytokine surge (serpin E1/PAI-1, osteopontin, MMP9, CCL2/MCP-1) by debris-stimulated macrophages ([4]; PTUPB 2.5 or 5 μM, 2 hours, paclitaxel- or carboplatin-generated ID8 debris): suppressed an angiogenic cytokine surge
debris-stimulated cytokine surge by primary murine peritoneal macrophages [5]: inhibited a debris-stimulated cytokine surge
sustained survival ([6]; PTUPB 30 mg/kg/day by mini-osmotic pump from 4 weeks post-injection, paclitaxel- or carboplatin-generated ID8 debris + ID8 living cells i.p.): over 120 days post-injection
survival compared to control (Kaplan-Meier, log-rank), paclitaxel-generated debris i.p. model ([6]; PTUPB 30 mg/kg/day, log-rank test=9.70, p=0.0018): significantly prolonged survival
survival compared to control (Kaplan-Meier, log-rank), carboplatin-generated debris i.p. model ([6]; PTUPB 30 mg/kg/day, log-rank test=9.85, p=0.0017): significantly prolonged survival
macrophage phagocytosis of aflatoxin B1-generated tumor cell debris, RAW264.7 [7]: able to stimulate macrophage phagocytosis; also recorded: stimulates macrophage phagocytosis
